Results on 13 molecules are retold here after PubChem BioAssay (NCI).

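1) Cells in 96-well plates. 2) Compound, 48 h, 5 concentrations. 3) Linear interpolation between surrounding doses. 4) Unreached endpoint = highest concentration. At the GI50, growth is halved. TGI denotes the concentration required for complete inhibition of growth.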 Bounds are passed on as bounds.

Among the test systems are CCRF-CEM leukemia; HCC-2998 colon; HOP-62 NSCLC; K-562 leukemia; KM12 colon; SF-268 CNS; SK-MEL-28 melanoma; SN12C renal; UO-31 renal; RPMI-8226 leukemia; SK-MEL-5 melanoma.
Common to all, as to experiment: NCI tumour cell line growth inhibition, 48 h

Regarding `C/C=C1/C(=Cc2[nH]c(C=c3[nH]/c(=C/C4=NC(=O)C(CC)=C4C)c(C)c3CCC(=O)O)c(CCC(=O)O)c2C)NC(=O)C1C` (configuration not stated), the TGI in the assay with CCRF-CEM leukemia was over 50 µM; in the assay with HCC-2998 colon it was over 50 µM; with HOP-62 NSCLC it was 15.9 µM; in the assay with K-562 leukemia, over 50 µM; in the assay on KM12 colon, over 50 µM; in the assay with SF-268 CNS, over 50 µM. Besides, the TGI in the assay on SK-MEL-28 melanoma was over 50 µM; in the assay on SN12C renal it was over 50 µM; with UO-31 renal, 20.1 µM.

With `CC(C)(C)OC(=O)C1/C(=C/CBr)CN1C(=O)OC(C)(C)C` (configuration not stated), the TGI stood at 6.22 µM in the assay with CCRF-CEM leukemia; 33.1 µM with HCC-2998 colon; 31.9 µM in the assay on HOP-62 NSCLC; 7.54 µM in the assay with K-562 leukemia; 18.1 µM in the assay with RPMI-8226 leukemia; 21.2 µM in the assay with SF-268 CNS. The TGI in the assay on SK-MEL-28 melanoma turned out to be 46.9 µM; with SK-MEL-5 melanoma, 27.4 µM; in the assay on SN12C renal, 27 µM; with UO-31 renal, 33.1 µM.

In the case of `COc1ccc2[nH]c3c(O)c(-c4c(C)cc5c([nH]c6ccc(OC)cc65)c4O)c(C)cc3c2c1`, the TGI in the assay on HCC-2998 colon is 6.99 µM; with HOP-62 NSCLC it was 8.35 µM; in the assay on K-562 leukemia, 8.13 µM; with KM12 colon, 7.74 µM; in the assay with RPMI-8226 leukemia, 7.45 µM; in the assay on SF-268 CNS, 8.06 µM. Further, the TGI with SK-MEL-28 melanoma was 9.64 µM; with SK-MEL-5 melanoma, 8.18 µM; in the assay with SN12C renal it was 8.17 µM; in the assay with UO-31 renal, 7.12 µM. Moreover, the GI50 in the assay with K-562 leukemia is 4.04 µM; in the assay with RPMI-8226 leukemia, 3.61 µM; in the assay on SK-MEL-5 melanoma, 4.34 µM; with UO-31 renal it was 3.78 µM.

As for `CCN1C/C(=C\c2ccc(Cl)cc2)c2[nH]c(=O)c(C#N)c(-c3ccc(Cl)cc3)c2C1`, the TGI in the assay with CCRF-CEM leukemia, in the assay with HCC-2998 colon, in the assay on HOP-62 NSCLC, in the assay with K-562 leukemia, with KM12 colon and with RPMI-8226 leukemia was over 100 µM throughout. The TGI with SF-268 CNS, in the assay with SK-MEL-28 melanoma, in the assay with SK-MEL-5 melanoma and in the assay on SN12C renal was over 100 µM throughout.

For the molecule `COc1cc([C@@H]2c3cc4c(cc3[C@@H](NC(=O)NO)[C@H]3COC(=O)[C@H]23)OCO4)cc(OC)c1O`, the TGI with CCRF-CEM leukemia, in the assay with HCC-2998 colon, with HOP-62 NSCLC, in the assay on K-562 leukemia, in the assay with RPMI-8226 leukemia and in the assay on SF-268 CNS was over 100 µM each time. In addition, in the assay on SN12C renal, the TGI was over 100 µM. Also, the GI50 in the assay on HCC-2998 colon is 4.06 µM.

With `COc1cc(C(=O)OC2CC34CCNC35CC(OC5(OC)C2O)c2cc3c(cc24)OCO3)ccc1O` (configuration not stated), the TGI in the assay with CCRF-CEM leukemia, with HCC-2998 colon, in the assay on HOP-62 NSCLC, in the assay with K-562 leukemia, with KM12 colon and in the assay with RPMI-8226 leukemia was over 100 µM throughout. For the same molecule, the TGI with SF-268 CNS, in the assay on SK-MEL-28 melanoma, with SK-MEL-5 melanoma and in the assay with SN12C renal was over 100 µM in each case.

Consider `COC(=O)C1=COC2OC3CC1C2C(C)O3` (configuration not stated), for which the TGI with CCRF-CEM leukemia, in the assay with HCC-2998 colon, in the assay with HOP-62 NSCLC, with KM12 colon, in the assay with RPMI-8226 leukemia and in the assay on SF-268 CNS was over 100 µM in each case. Moreover, the TGI with SK-MEL-28 melanoma, in the assay with SK-MEL-5 melanoma, with SN12C renal and in the assay with UO-31 renal was over 100 µM in each case.

On to `CCOC(=O)CCc1ccc(NC(=O)/C=C/c2ccc([N+](=O)[O-])o2)cc1`, for which the TGI with CCRF-CEM leukemia was found to be 0.957 µM; in the assay with HCC-2998 colon, 7.61 µM; with HOP-62 NSCLC, 11 µM; with KM12 colon, 4.43 µM; in the assay on SF-268 CNS it was 7.63 µM; in the assay with SK-MEL-28 melanoma, 3.39 µM. Moreover, the results for the TGI in the assay with SK-MEL-5 melanoma, with SN12C renal and in the assay on UO-31 renal were 3.49 µM, 4.26 µM and 3.08 µM, respectively.

On to `CCOC(=O)c1ccc(N(CCOS(=O)(=O)c2ccc(C)cc2)CCOS(=O)(=O)c2ccc(C)cc2)cc1`, for which the TGI in the assay with CCRF-CEM leukemia, in the assay with HCC-2998 colon, in the assay on K-562 leukemia, in the assay with KM12 colon, in the assay on RPMI-8226 leukemia and in the assay on SF-268 CNS was over 100 µM each time. For the same molecule, the TGI with SK-MEL-5 melanoma and in the assay on UO-31 renal was over 100 µM throughout.

`O=C1NC(N2CCCCC2)=N/C1=C\c1ccco1`: the TGI in the assay with CCRF-CEM leukemia, in the assay on HCC-2998 colon, with HOP-62 NSCLC, in the assay on KM12 colon, with RPMI-8226 leukemia and in the assay on SF-268 CNS was over 100 µM throughout. The TGI in the assay with SK-MEL-28 melanoma, in the assay on SK-MEL-5 melanoma, in the assay with SN12C renal and with UO-31 renal was over 100 µM in each case.

For `O=C1C2C3C=C4c5ccccc5N(c5ccccc5)C4([C@@H]2C(=O)N1c1ccc(F)cc1)[C@H]1C(=O)N(c2ccc(F)cc2)C(=O)[C@@H]31` (some centres not stated), the TGI in the assay on CCRF-CEM leukemia, in the assay with HCC-2998 colon, with K-562 leukemia, in the assay with KM12 colon, in the assay with RPMI-8226 leukemia and with SF-268 CNS was over 100 µM in each case. Further, the TGI is over 100 µM in the assay with SK-MEL-28 melanoma, over 100 µM in the assay with SN12C renal and 88.6 µM with UO-31 renal.

With `C1=Cc2cccc3occ(c23)C=C1`, the TGI with CCRF-CEM leukemia is 49.9 µM; with HCC-2998 colon, over 100 µM; in the assay on HOP-62 NSCLC it was over 100 µM; in the assay on K-562 leukemia it was 40.1 µM; in the assay with KM12 colon, over 100 µM; with SF-268 CNS, over 100 µM. The TGI in the assay with SK-MEL-28 melanoma, in the assay on SK-MEL-5 melanoma, in the assay on SN12C renal and in the assay with UO-31 renal was over 100 µM in each case.

Regarding `O=C(CCN1CCCC1)c1ccc(Oc2ccc(F)cc2)cc1`, the TGI in the assay with CCRF-CEM leukemia is 46.7 µM; in the assay with HCC-2998 colon, over 100 µM; in the assay on HOP-62 NSCLC, over 100 µM; in the assay on K-562 leukemia, over 100 µM; with KM12 colon, 90.9 µM; in the assay with SF-268 CNS it was over 100 µM. The TGI in the assay with SK-MEL-28 melanoma, with SK-MEL-5 melanoma, with SN12C renal and with UO-31 renal was over 100 µM each time.
